Source: patent US10112935B2, “Indazolyl thiadiazolamines and related compounds for inhibition of Rho-associated protein kinase and the treatment of disease” (Lycera Corporation, priority 2015, dated 2018)

Legend:
[1] = target: GST-tagged human ROCK1 catalytic domain 1-477 (Homo sapiens (Human), UniProt Q13464); assay: Inhibition of Rho-associated protein kinase isoform 1 (LANCE Ultra ULight-CREBtide FRET kinase assay); type: biochemical; details: 30 μM was the highest concentration analyzed
Summary of the method: (§1)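 Baculovirus-expressed kinase phosphorylated ULight-CREBtide for 90 min at room temperature before the reaction was stopped with 10 mM EDTA. Phospho-substrate was detected by TR-FRET with 1 nM Europium-anti-phospho-CREB (Ser133) antibody after 60 min at room temperature.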

[2] = target: GST-tagged human ROCK2 catalytic domain 1-553 (Homo sapiens (Human), UniProt O75116); assay: Inhibition of Rho-associated protein kinase isoform 2 (LANCE Ultra ULight-CREBtide FRET kinase assay); type: biochemical; details: for IC50: 30 μM was the highest concentration analyzed; for Selectivity for ROCK2 over ROCK1 (IC50 ROCK1 / IC50 ROCK2): selectivity ROCK2 vs ROCK1
Chain of GST-tagged human ROCK2 catalytic domain 1-553 (O75116 1-553): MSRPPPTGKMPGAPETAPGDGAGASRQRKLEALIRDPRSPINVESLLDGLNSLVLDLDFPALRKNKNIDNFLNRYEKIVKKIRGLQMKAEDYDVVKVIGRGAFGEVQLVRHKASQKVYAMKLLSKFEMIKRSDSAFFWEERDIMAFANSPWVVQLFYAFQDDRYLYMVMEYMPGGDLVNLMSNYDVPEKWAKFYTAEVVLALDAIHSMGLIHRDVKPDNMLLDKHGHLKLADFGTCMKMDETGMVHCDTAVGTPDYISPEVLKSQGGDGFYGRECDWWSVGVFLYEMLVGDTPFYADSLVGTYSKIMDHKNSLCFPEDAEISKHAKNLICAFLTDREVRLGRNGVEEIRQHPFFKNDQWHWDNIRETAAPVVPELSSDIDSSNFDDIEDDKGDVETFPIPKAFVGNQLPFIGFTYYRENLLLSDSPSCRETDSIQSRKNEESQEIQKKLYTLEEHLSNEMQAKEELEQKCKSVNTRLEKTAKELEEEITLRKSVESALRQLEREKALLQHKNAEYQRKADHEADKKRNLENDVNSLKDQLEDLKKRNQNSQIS
Summary of the method: as §1

Chain of GST-tagged human ROCK1 catalytic domain 1-477 (Q13464 1-477): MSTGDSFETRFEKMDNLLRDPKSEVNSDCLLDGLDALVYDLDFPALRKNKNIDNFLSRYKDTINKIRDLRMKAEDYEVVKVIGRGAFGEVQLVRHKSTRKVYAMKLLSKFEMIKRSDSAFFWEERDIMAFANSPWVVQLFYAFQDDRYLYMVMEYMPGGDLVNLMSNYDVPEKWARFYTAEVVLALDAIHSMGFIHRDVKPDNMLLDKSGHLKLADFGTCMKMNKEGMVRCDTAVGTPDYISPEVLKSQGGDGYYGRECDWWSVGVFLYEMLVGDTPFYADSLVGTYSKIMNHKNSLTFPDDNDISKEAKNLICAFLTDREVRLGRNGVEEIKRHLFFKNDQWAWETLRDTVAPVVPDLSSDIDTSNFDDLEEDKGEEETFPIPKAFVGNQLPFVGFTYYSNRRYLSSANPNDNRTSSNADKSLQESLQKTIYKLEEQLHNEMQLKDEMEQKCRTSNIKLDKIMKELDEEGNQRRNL

Row | SMILES | IC50 [1] | IC50 [2] | Selectivity for ROCK2 over ROCK1 (IC50 ROCK1 / IC50 ROCK2) [2]
1 | O=C(Cc1ccon1)Nc1cccc(-c2nnc(Nc3ccc4[nH]ncc4c3Cl)s2)c1 [Example 35BG] | > 30 µM | < 1 µM | >100
2 | NC(Cc1ccc(Cl)cc1)C(=O)Nc1cccc(-c2nnc(Nc3ccc4[nH]ncc4c3Cl)s2)c1 (stereo not drawn) [Example 35BF] | 1 to 15 µM | < 1 µM | >5
3 | N#Cc1cccc(-c2nnc(Nc3ccc4[nH]ncc4c3Cl)s2)c1 [Example 35Z] | > 30 µM | < 1 µM | >100
4 | O=C(Nc1cccc(-c2nnc(Nc3ccc4[nH]ncc4c3Cl)s2)c1)c1cc(O)cc(O)c1 [Example 35AS] | < 1 µM | < 1 µM | >50
5 | Clc1c(Nc2nnc(-c3cccc(-c4nccn4C4COC4)c3)s2)ccc2[nH]ncc12 [Example 37, N-(4-Chloro-1H-indazol-5-yl)-5-(3-(1-(oxetan-3-yl)-1H-imidazol-2-yl)phenyl)-1,3,4-thiadiazol-2-amine] | > 30 µM | < 1 µM | >100
6 | O=C(O)C(F)(F)F.OCc1cc(-c2ncco2)cc(-c2nnc(Nc3ccc4[nH]ncc4c3Cl)s2)c1 [Example 41C] | < 1 µM | < 1 µM | >5
7 | CC(=O)c1cccc(-c2nnc(Nc3ccc4[nH]ncc4c3Cl)s2)c1 [Example 35AM] | > 30 µM | < 1 µM | >100
8 | Cn1cc(C(=O)Nc2cncc(-c3nnc(Nc4ccc5[nH]ncc5c4Cl)s3)c2)cn1 [Example 35BU] | < 1 µM | < 1 µM | >5
9 | O=C(Cc1ncc[nH]1)Nc1cccc(-c2nnc(Nc3ccc4[nH]ncc4c3Cl)s2)c1 [Example 35BD] | > 30 µM | < 1 µM | >100
10 | O=C(Nc1cccc(-c2nnc(Nc3ccc4[nH]ncc4c3)s2)c1)C(O)CO (stereo not drawn) [Example 35CI] | < 1 µM | < 1 µM | <5
11 | CC1(C)COC(c2cccc(-c3nnc(Nc4ccc5[nH]ncc5c4Cl)s3)c2)=N1 [Example 46F] | 1 to 15 µM | < 1 µM | >5
12 | N#Cc1ccc(CC(=O)Nc2cccc(-c3nnc(Nc4ccc5[nH]ncc5c4Cl)s3)c2)cc1 [Example 35BK] | > 30 µM | < 1 µM | >100
13 | O=C(O)C(F)(F)F.OCCn1ccnc1-c1cccc(-c2nnc(Nc3ccc4[nH]ncc4c3Cl)s2)c1 [Example 45A, 2-(2-(3-(5-((4-Chloro-1H-indazol-5-yl)amino)-1,3,4-thiadiazol-2-yl)phenyl)-1H-imidazol-1-yl)ethan-1-ol 2,2,2-trifluoroacetic Acid Solvate] | 1 to 15 µM | < 1 µM | >75
14 | Clc1c(Nc2nnc(-c3cncc(-c4ncco4)c3)s2)ccc2[nH]ncc12 [Example 46P] | > 30 µM | < 1 µM | >100
15 | Cc1cnn(CC(=O)Nc2cccc(-c3nnc(Nc4ccc5[nH]ncc5c4Cl)s3)c2)c1 [Example 35BI] | 1 to 15 µM | < 1 µM | >100
16 | Nc1cncc(-c2nnc(Nc3ccc4[nH]ncc4c3)s2)c1.O=C(O)C(F)(F)F [Example 35CS] | < 1 µM | 1 to 15 µM | <5
17 | CC(=O)Nc1cc(F)c(F)c(-c2nnc(Nc3ccc4[nH]ncc4c3Cl)s2)c1.O=C(O)C(F)(F)F [Example 35BB] | > 30 µM | < 1 µM | >100
18 | CC(=O)Nc1cc(CN2CCN(C)CC2)cc(-c2nnc(Nc3ccc4[nH]ncc4c3Cl)s2)c1.O=C(O)C(F)(F)F [Example 48B] | 1 to 15 µM | < 1 µM | >50
19 | Cn1cc(C(=O)Nc2cncc(-c3nnc(Nc4ccc5[nH]ncc5c4)s3)c2)cn1.O=C(O)C(F)(F)F [Example 35CA] | < 1 µM | < 1 µM | <5
20 | CC(=O)Nc1cccc(-c2nnc(Nc3ccc4[nH]ncc4c3Cl)s2)c1 [Example 35Y] | < 1 µM | < 1 µM | >5
21 | CC(=O)Nc1cccc(-c2nnc(N(C)c3ccc4[nH]ncc4c3Cl)s2)c1 [Example 35BC] | > 30 µM | < 1 µM | >75
22 | CC(=O)Nc1cc(C(=O)O)cc(-c2nnc(Nc3ccc4[nH]ncc4c3)s2)c1 [Example 48AE] | < 1 µM | < 1 µM | –
23 | O=C(Nc1cccc(-c2nnc(Nc3ccc4[nH]ncc4c3Cl)s2)c1)N1CCNCC1 [Example 35T] | < 1 µM | < 1 µM | >5
24 | O=C(Nc1cc(-c2nnc(Nc3ccc4[nH]ncc4c3Cl)s2)ccn1)N1CCOCC1 [Example 35A] | < 1 µM | < 1 µM | >5
25 | CCS(=O)(=O)Nc1cncc(-c2nnc(Nc3ccc4[nH]ncc4c3)s2)c1.O=C(O)C(F)(F)F [Example 35CN] | 1 to 15 µM | 1 to 15 µM | >5
26 | CC(C(=O)Nc1cccc(-c2nnc(Nc3ccc4[nH]ncc4c3Cl)s2)c1)c1ccccn1 (stereo not drawn) [Example 35AH] | < 1 µM | < 1 µM | <5

The next lines start with the values.

Row | IC50 [1] | IC50 [2] | Selectivity for ROCK2 over ROCK1 (IC50 ROCK1 / IC50 ROCK2) [2] | SMILES
27 | > 30 µM | 1 to 15 µM | >5 | c1cc(-c2nnc(Nc3ccc4[nH]ncc4c3)s2)cc(N2CCNCC2)c1 [Example 75H]
28 | < 1 µM | < 1 µM | >5 | CSc1ccc(NC(C)=O)cc1-c1nnc(Nc2ccc3[nH]ncc3c2Cl)s1 [Example 48F]
29 | 1 to 15 µM | 1 to 15 µM | >5 | O=C(O)COc1cccc(-c2nnc(Nc3ccc4[nH]ncc4c3)s2)c1 [Example A-22]
30 | > 30 µM | > 30 µM | – | Cn1cc(C(=O)Nc2cccc(-c3nnc(Nc4ccc5[nH]nc(Cl)c5c4)s3)c2)cn1 [Example 75J]
31 | 1 to 15 µM | < 1 µM | >5 | CC(C)NCC(=O)Nc1cncc(-c2nnc(Nc3ccc4[nH]ncc4c3)s2)c1 [Example A-2]
32 | > 30 µM | < 1 µM | >100 | O=C(Nc1cccc(-c2nnc(Nc3ccc4[nH]ncc4c3)s2)c1)c1c[nH]cn1 [Example A-49]
33 | < 1 µM | < 1 µM | >5 | CC1CCN(C(=O)Nc2cccc(-c3nnc(Nc4ccc5[nH]ncc5c4)s3)c2)C1 (stereo not drawn) [Example A-28]
34 | 1 to 15 µM | < 1 µM | >5 | Cc1cc(C(=O)Nc2cccc(-c3nnc(Nc4ccc5[nH]ncc5c4)s3)c2)[nH]n1 [Example A-39]
35 | 1 to 15 µM | 1 to 15 µM | <5 | NCCS(=O)(=O)Nc1cccc(-c2nnc(Nc3ccc4[nH]ncc4c3)s2)c1 [Example A-1]
36 | < 1 µM | < 1 µM | <5 | Cn1cc(C(=O)Nc2cc(-c3nnc(Nc4ccc5[nH]ncc5c4)s3)ccn2)cn1 [Example 75I]
37 | 1 to 15 µM | < 1 µM | >5 | CC(C)(O)CNC(=O)c1cccc(-c2nnc(Nc3ccc4[nH]ncc4c3Cl)s2)c1 [Example 75F]
38 | < 1 µM | < 1 µM | <5 | Cc1cccc(CNC(=O)c2cccc(-c3nnc(Nc4ccc5[nH]ncc5c4Cl)s3)c2)n1 [Example 75G]
39 | > 30 µM | < 1 µM | >100 | Cc1cc(C(=O)Nc2cccc(-c3nnc(Nc4ccc5[nH]ncc5c4)s3)c2)no1 [Example A-40]
40 | > 30 µM | > 30 µM | – | Clc1c(Nc2nnc(-c3cccc4c3ncn4CCN3CCOCC3)s2)ccc2[nH]ncc12 [Example 75V]
41 | < 1 µM | < 1 µM | >5 | COc1ccc(NC(C)=O)cc1-c1nnc(Nc2ccc3[nH]ncc3c2Cl)s1 [Example 48J]
42 | > 30 µM | < 1 µM | >100 | O=C(Nc1cccc(-c2nnc(Nc3ccc4[nH]ncc4c3)s2)n1)c1c[nH]cn1 [Example A-31]
43 | 1 to 15 µM | < 1 µM | >5 | CCc1cn2cccc(-c3nnc(Nc4ccc5[nH]nc(C)c5c4)s3)c2n1 [Example 50A]
44 | > 30 µM | < 1 µM | >100 | Cn1cc(C(=O)Nc2cc(-c3nnc(Nc4ccc5[nH]ncc5c4Cl)s3)ccc2Br)cn1 [Example 48Y]
45 | > 30 µM | 1 to 15 µM | >5 | O=C(c1ccnnc1)N1CCN(c2nnc(Nc3ccc4[nH]ncc4c3)s2)CC1 [Example A-36]
46 | < 1 µM | < 1 µM | >5 | c1cc(-c2nnc(Nc3ccc4[nH]ncc4c3)s2)c2nccn2c1 [Example 49, 5-Imidazo[1,2-a]pyridin-8-yl-N-(1H-indazol-5-yl)-1,3,4-thiadiazol-2-amine 2,2,2-trifluoroacetic Acid Solvate]
47 | < 1 µM | < 1 µM | >5 | CC(=O)Nc1cc(C(=O)NCC(O)CO)cc(-c2nnc(Nc3ccc4[nH]ncc4c3Cl)s2)c1 (stereo not drawn) [Example 48W]
